Results: patent US6818662B2, “Pharmaceutical composition” (Taisho Pharmaceutical Co., Ltd., priority 2002, dated 2004)
Values after ≈ are worked out from the molar mass of the structure shown.

Key:
Format in all cases: physicochemical
[1] = Stability in acidic solution
Source text: (§1) The present invention can be disclosed in more detail as follows. Since N-(3-chloro-4-morpholin-4-yl)phenyl-N′-hydroxyimidoformamidine was unstable in an acidic solution, solubilization by forming it into an acidic salt thereof was not proper. Furthermore, the solubility of N-(3-chloro-4-morpholin-4-yl)phenyl-N′-hydroxyimidoformamidine in 5% Tween 80, 10% polyethylene glycol, soybean oil and olive oil, which were used for forming it into micelles, co-solvents and lipid emulsion preparations, was not more than 0.5 mg/mL at 25° C. and was insufficient for forming it into these micelles, co-solvents and lipid emulsion preparations. […] Based on this unpredictable finding in which in the case of the sulfobutyl ether β-cyclodextrin solution, the drug is stable over light exposure and thus, it is convenient for actual use without a special care such as shading, the present invention has been accomplished.

[2] = Solubility in vehicles for micelles, co-solvents and lipid emulsion preparations
Source text: as §1

Solubilization test = conditions: 25° C.
Description: An excess amount of N-(3-chloro-4-morpholin-4-yl)phenyl-N′-hydroxyimidoformamidine was added to 10% and 20% aqueous solutions of sulfobutyl ether β-cyclodextrin sodium salt (Captisol (trade name); average substitution degree is about 7) and purified water as a control, respectively. After shaking on a water bath adjusted at 25° C. for one day, the solubility of the drug was measured.

## ON=CNc1ccc(N2CCOCC2)c(Cl)c1 [N-(3-chloro-4-morpholin-4-yl)phenyl-N′-hydroxyimidoformamidine]
[1]
  stability in an acidic solution: unstable
[2]; 5% Tween 80, 25° C.
  solubility: not more than 0.5 mg/mL
[2]; 10% polyethylene glycol, 25° C.
  solubility: not more than 0.5 mg/mL
[2]; olive oil, 25° C.
  solubility: not more than 0.5 mg/mL
[2]; soybean oil, 25° C.
  solubility: not more than 0.5 mg/mL
Solubilization test; 10% aqueous solution of sulfobutyl ether β-cyclodextrin sodium salt
  solubility: 3570 µg/mL
Solubilization test; 20% aqueous solution of sulfobutyl ether β-cyclodextrin sodium salt
  solubility: 7670 µg/mL
Solubilization test; purified water (control), shaking one day
  solubility: 80 µg/mL (≈ 313 µM)
